The structures appear in SMILES notation. ± gives the expanded uncertainty stated by the source.

A short description of this data set: activity coefficient (dimensionless); of the first substance listed, at infinite dilution; xn = mol fraction of the nth substance listed. The note with it: 101.33 kPa, Liquid, Chromatography, x1 = 0.

With `CCC(C)O` (stereo not given) [butan-2-ol] + N#C[N-]C#N.OCCC[n+]1ccccc1, the activity coefficient is 3.23 ± 0.22 (318.15 K); 3.18 ± 0.22 (328.15 K); 3.13 ± 0.21 (338.15 K); 3.09 ± 0.21 (348.15 K); 3.05 ± 0.21 (358.15 K); 3.02 ± 0.21 (368.15 K).

Turning to `CCCC=O` [butanal] + N#C[N-]C#N.OCCC[n+]1ccccc1, the activity coefficient (318.15 K) was determined as 4.09 ± 0.28; the activity coefficient (328.15 K) amounted to 4.21 ± 0.29; the activity coefficient (338.15 K) turned out to be 4.3 ± 0.29; the activity coefficient (348.15 K) was 4.39 ± 0.3; the activity coefficient (358.15 K) is 4.49 ± 0.31; the activity coefficient (368.15 K) turned out to be 4.57 ± 0.31.

With `C1CCCCCC1` [cycloheptane] + N#C[N-]C#N.OCCC[n+]1ccccc1, the activity coefficient (298.15 K) was 161 ± 11; the activity coefficient (308.15 K) is 149 ± 10; the activity coefficient (318.15 K) was 139 ± 10; the activity coefficient (328.15 K) is 130 ± 9; the activity coefficient (338.15 K) was 122 ± 8; the activity coefficient (348.15 K) amounted to 115 ± 8. In addition, the activity coefficient (358.15 K) came to 109 ± 7.

Turning to `C1CCCCC1` [cyclohexane] + N#C[N-]C#N.OCCC[n+]1ccccc1, the activity coefficient is, setting by setting: (298.15 K) 118 ± 8; (308.15 K) 111 ± 8; (318.15 K) 105 ± 7; (328.15 K) 99.8 ± 6.8; (338.15 K) 95 ± 6.5; (348.15 K) 90.7 ± 6.2. Also, the activity coefficient (358.15 K) was found to be 86.9 ± 6.

For the molecule `C1=CCCCC1` [cyclohexene] + N#C[N-]C#N.OCCC[n+]1ccccc1, the activity coefficient (298.15 K) stood at 38.7 ± 2.6; the activity coefficient (308.15 K) was 37.6 ± 2.6; the activity coefficient (318.15 K) is 36.6 ± 2.5; the activity coefficient (328.15 K) is 35.8 ± 2.4; the activity coefficient (338.15 K) is 34.8 ± 2.4; the activity coefficient (348.15 K) came to 34 ± 2.3. Further, the activity coefficient (358.15 K) was 33.4 ± 2.3.

As for `C1CCCCCCC1` [cyclooctane] + N#C[N-]C#N.OCCC[n+]1ccccc1, the activity coefficient stood at 231 ± 16 (298.15 K); 215 ± 15 (308.15 K); 201 ± 14 (318.15 K); 188 ± 13 (328.15 K); 178 ± 12 (338.15 K); 168 ± 12 (348.15 K). The activity coefficient (358.15 K) came out at 159 ± 11.

Take `C1CCCC1` [cyclopentane] + N#C[N-]C#N.OCCC[n+]1ccccc1: the activity coefficient was 67 ± 4.6 (298.15 K); 63.5 ± 4.3 (308.15 K); 60.4 ± 4.1 (318.15 K); 57.4 ± 3.9 (328.15 K); 54.9 ± 3.8 (338.15 K); 52.7 ± 3.6 (348.15 K). Moreover, the activity coefficient (358.15 K) turned out to be 50.5 ± 3.5.

Regarding `CCCCCCCCCC` [decane] + N#C[N-]C#N.OCCC[n+]1ccccc1, the activity coefficient was 2100 ± 140 (298.15 K); 1900 ± 130 (308.15 K); 1730 ± 120 (318.15 K); 1580 ± 110 (328.15 K); 1450 ± 100 (338.15 K); 1340 ± 92 (348.15 K). Besides, where the note is “358.15 K”, the activity coefficient was determined as 1240 ± 86.

As for `CCOCC` [diethyl ether] + N#C[N-]C#N.OCCC[n+]1ccccc1, the activity coefficient amounted to 21.5 ± 1.5 (318.15 K); 21.5 ± 1.5 (328.15 K); 21.5 ± 1.5 (338.15 K); 21.5 ± 1.5 (348.15 K); 21.4 ± 1.5 (358.15 K); 21.4 ± 1.5 (368.15 K).

As to `CC(C)OC(C)C` [diisopropyl ether] + N#C[N-]C#N.OCCC[n+]1ccccc1, the activity coefficient by setting is: (318.15 K) 105 ± 7; (328.15 K) 102 ± 7; (338.15 K) 99.8 ± 6.8; (348.15 K) 97.5 ± 6.7; (358.15 K) 95.4 ± 6.5; (368.15 K) 93.6 ± 6.4.

As to `CCCOCCC` [dipropyl ether] + N#C[N-]C#N.OCCC[n+]1ccccc1, the activity coefficient reads like this: (318.15 K) 92.3 ± 6.3; (328.15 K) 89.2 ± 6.1; (338.15 K) 86.8 ± 5.9; (348.15 K) 84.2 ± 5.8; (358.15 K) 81.9 ± 5.6; (368.15 K) 79.7 ± 5.5.

Consider `CCO` [ethanol] + N#C[N-]C#N.OCCC[n+]1ccccc1, for which the activity coefficient by setting is: (318.15 K) 1.3 ± 0.08; (328.15 K) 1.3 ± 0.08; (338.15 K) 1.3 ± 0.08; (348.15 K) 1.31 ± 0.09; (358.15 K) 1.31 ± 0.09; (368.15 K) 1.31 ± 0.09.

For `CCOC(C)=O` [ethyl acetate] + N#C[N-]C#N.OCCC[n+]1ccccc1, the activity coefficient is 6.37 ± 0.43 (318.15 K); 6.6 ± 0.45 (328.15 K); 6.81 ± 0.46 (338.15 K); 7.02 ± 0.48 (348.15 K); 7.23 ± 0.49 (358.15 K); 7.43 ± 0.51 (368.15 K).

`CCc1ccccc1` [ethylbenzene] + N#C[N-]C#N.OCCC[n+]1ccccc1: the activity coefficient was determined as 16.1 ± 1.1 (318.15 K); 16.4 ± 1.1 (328.15 K); 16.8 ± 1.1 (338.15 K); 17.1 ± 1.2 (348.15 K); 17.4 ± 1.2 (358.15 K); 17.7 ± 1.2 (368.15 K).

Regarding `CCCCCCC` [heptane] + N#C[N-]C#N.OCCC[n+]1ccccc1, the activity coefficient is, setting by setting: (298.15 K) 582 ± 40; (308.15 K) 527 ± 36; (318.15 K) 481 ± 33; (328.15 K) 441 ± 30; (338.15 K) 407 ± 28; (348.15 K) 377 ± 26. For the same molecule, the activity coefficient (358.15 K) came to 351 ± 24.

Take `C=CCCCC` [hex-1-ene] + N#C[N-]C#N.OCCC[n+]1ccccc1: the activity coefficient (298.15 K) came out at 130 ± 9; the activity coefficient (308.15 K) was found to be 125 ± 9; the activity coefficient (318.15 K) turned out to be 120 ± 8; the activity coefficient (328.15 K) worked out at 115 ± 8; the activity coefficient (338.15 K) is 111 ± 8; the activity coefficient (348.15 K) was 107 ± 7. Besides, the activity coefficient (358.15 K) amounted to 103 ± 7.

Turning to `CCCCCC` [hexane] + N#C[N-]C#N.OCCC[n+]1ccccc1, the activity coefficient came out at 364 ± 25 (298.15 K), 328 ± 23 (308.15 K), 296 ± 20 (318.15 K) and 269 ± 18 (328.15 K).

On to `CC(C)c1ccccc1` [isopropylbenzene] + N#C[N-]C#N.OCCC[n+]1ccccc1, for which the activity coefficient (318.15 K) was 29.5 ± 2; the activity coefficient (328.15 K) turned out to be 29.7 ± 2; the activity coefficient (338.15 K) was 29.8 ± 2; the activity coefficient (348.15 K) was 30 ± 2.1; the activity coefficient (358.15 K) was 30.2 ± 2.1; the activity coefficient (368.15 K) stood at 30.4 ± 2.1.

With `CO` [methanol] + N#C[N-]C#N.OCCC[n+]1ccccc1, the activity coefficient (318.15 K) was found to be 0.682 ± 0.046; the activity coefficient (328.15 K) was 0.692 ± 0.047; the activity coefficient (338.15 K) worked out at 0.703 ± 0.047; the activity coefficient (348.15 K) was determined as 0.713 ± 0.048; the activity coefficient (358.15 K) stood at 0.725 ± 0.048; the activity coefficient (368.15 K) came to 0.733 ± 0.049.

Turning to `CCCC(=O)OC` [methyl butanoate] + N#C[N-]C#N.OCCC[n+]1ccccc1, the activity coefficient (318.15 K) amounted to 10.3 ± 0.7; the activity coefficient (328.15 K) amounted to 10.6 ± 0.7; the activity coefficient (338.15 K) came to 10.9 ± 0.7; the activity coefficient (348.15 K) was determined as 11.2 ± 0.8; the activity coefficient (358.15 K) worked out at 11.5 ± 0.8; the activity coefficient (368.15 K) was determined as 11.7 ± 0.8.

For the molecule `COC(C)=O` [methyl ethanoate] + N#C[N-]C#N.OCCC[n+]1ccccc1, the activity coefficient amounted to 3.28 ± 0.22 (318.15 K); 3.43 ± 0.23 (328.15 K); 3.56 ± 0.24 (338.15 K); 3.71 ± 0.25 (348.15 K); 3.84 ± 0.26 (358.15 K); 3.98 ± 0.27 (368.15 K).

As for `CCC(=O)OC` [methyl propanoate] + N#C[N-]C#N.OCCC[n+]1ccccc1, the activity coefficient runs as follows: (318.15 K) 5.77 ± 0.39; (328.15 K) 5.99 ± 0.41; (338.15 K) 6.2 ± 0.42; (348.15 K) 6.42 ± 0.44; (358.15 K) 6.61 ± 0.45; (368.15 K) 6.81 ± 0.46.

Regarding `CC1CCCCC1` [methylcyclohexane] + N#C[N-]C#N.OCCC[n+]1ccccc1, the activity coefficient is 210 ± 14 (298.15 K); 195 ± 13 (308.15 K); 182 ± 13 (318.15 K); 170 ± 12 (328.15 K); 160 ± 11 (338.15 K); 150 ± 10 (348.15 K). The activity coefficient (358.15 K) turned out to be 143 ± 10.

For the origin of these results see the NIST ThermoML archive (doi:10.1016/j.jct.2017.03.004).
